Data on 25 molecules can be found in patent publication US20050227994A1, “Decomposition inhibitor for extracellular matrix of cartilage” (Shionogi & Co., Ltd., priority 2002, published 2005).

Structures are written as SMILES. Entries after “also recorded” stand apart in the source; their conditions may differ. Some results are limits rather than exact numbers.

Experiment [1] deals with cartilage disks of juvenile rabbits, IL-1 stimulated GAG release. The experiment in a line: Cartilage culture test (IL-1 induced GAG release). It counts as cell-based, rabbit. The note with it: stated in text for the compound of FIG. 1. On the procedure:
Cartilage disks (2 mm in diameter) were prepared from the cartilage of juvenile rabbits (3 weeks). Cartilage disks were transferred and cultured individually in the wells of a 48-well tissue culture plate containing DMEM/10% FCS for over 3 days at 37° C. In the night before the test, the medium of DMEM was changed to that not containing FCS. Next morning, IL-1 (4 ng/ml) and a test compound were added to the plate. It is provided that some wells of a plate contain only IL-1 (not containing test compound) and that some wells are vehicle (not containing IL-1 and test compound). After 4 days from the IL-1 addition, the amount of released glycosaminoglycan (GAG) was measured after collecting culture supernatant and cartilage disks.
Quantitation of GAG release was as follows; the weight of the cartilage disk was measured, then 200 μl of a papain digestion buffer solution (1 mM EDTA, 2 mM DTT, 20 mM Tris, (pH 7.0), Papain (300 μg/ml)) was added to each well and the plate containing the digestive solution was incubated for 2 h at 65° C. 50 μl of 100 mM Iodoacetatic acid (pH 7.0) was added for stopping the digestion. The extracts of cartilage are centrifuged at 12000 rpm for 5 min. […] The amount of released GAG in the transferred solution was quantitated by using a proteoglycan & glycosaminoglycan assay kit (Blyscan, Funakoshi Co., Ltd, Tokyo, Japan).

Experiment [2] deals with aggrecanase. Put plainly: Aggrecanase inhibitory activity test (western blot with anti ARGSV antibody). Format: cell-based, rabbit. The note with it: 4 days culture supernatant containing both IL-1 and test compound. On the procedure:
To 50 μl of the above 4 days cultured supernatant (not including IL-1 and a test compound, including IL-1 only, including both IL-1 and a test compound) was added a 5 volume solution of 95% EtOH containing 1.3% (w/v) potassium acetate. After the mixed solution was stood at −20° C. for 30 min, the solution was centrifuged to obtain a precipitation. The precipitation was solubilized in 100 μl of 25 mM Tris-hydrochloric acid buffer solution (pH7.6) containing 5 mM calcium chloride*0.15M sodium chloride*0.0025% Brij35. After addition of 5 μl of 250 mM ethylenediaminetetraacetic acid, and 2.5 μl each of 1M sodium acetate (pH6.0) and 1M Tris-hydrochloric acid (pH7.9) to the solution, 2.5 μl of 0.02 units/μl Chondroitinase ABC and 1.0 μl of 0.1 units/μl Keratanase (Both are Seikagaku Kogyo, Japan) were added and the mixture was incubated at 37° C. for 16 h to remove GAG. […]
In the culture supernatant containing only IL-1, the 250 kDa aggrecanase-generated fragment of aggrecan which was recognized by anti N-terminus neoepitope antibody was observed, which was not detected in the supernatant not containing IL-1 and a test compound (XXI). On the other hand, in the culture supernatant containing both IL-1 and a test compound (XXI), the 250 kDa aggrecanase-generated fragment was not detected.

Experiment [3] deals with T1, MMP-13 (Homo sapiens, UniProt P45452).
T1 construct: catalytic domain (^104Tyr˜^267Gly) was amplified with RT-PCR; His-tag; enterokinase digestion-site; made in house
The experiment in a line: Assay for inhibitory activities on MMP-13. It counts as biochemical. The note with it: catalytic domain, substrate MOCAc-Pro-Leu-Gly-Leu-A2Pr(DNP)-Ala-Arg-NH2; read-out: MMP-13 (IC50μM). The protocol:
In regard to MMP-13, mRNA was prepared from carcinoma cell SW1353 derived from human cartilage stimulate by IL-1, TNF and catalytic domain (^[…]) was amplified with RT-PCR. This was cloned in Escherichia. coli expression vector […] inserted with His-tag sequence and enterokinase digestion-site, induced and expressed by IPTG (Isopropyl-β-D-thiogalactopyranoside) and expressed in a insoluble fraction. Isolation of MMP-13 from an insoluble fraction was carried out by dissolving in modifier (6M urea) by a usual method and purification with metal chelate chromatography (Ni […] Sepharose). […] The enzymatic activity on MMP was analyzed by the method described in “C. Graham Knight, Frances Willenbrock and Gillian Murphy: A novel coumarin-labelled peptide for sensitive continuous assays of the matrix metalloproteinases: […] The substrate: MOCAc-[…] was purchased from Peptide Institute, Inc., Osaka, Japan.

Regarding `CC(C)C(NS(=O)(=O)c1ccc(Oc2ccccc2)cc1)C(=O)NO` (centres unmarked) [XXI], in experiment [1], the GAG value turned out to be 87. The “250 kDa aggrecanase-generated fragment of aggrecan (new N-terminus ARGSV), western blot” value in experiment [2] is “inhibits the production of aggrecanase-generated new N-terminus (ARGSV); also recorded: not detected”. For the molecule `COc1ccc2cc(C#Cc3ccc(S(=O)(=O)N[C@H](Cc4ccccc4)C(=O)O)s3)ccc2c1` [Compound H-12], the IC50 in experiment [3] is 0.15 µM. Still for that read-out and setting: then `CC(C)C[C@@H](NS(=O)(=O)c1ccc(C#Cc2ccc3[nH]c(=O)sc3c2)cc1)C(=O)O` [Compound G-15], with 1.09 µM; and `O=C(O)[C@H](CO)NS(=O)(=O)c1ccc(C#Cc2ccc3c(c2)OCO3)cc1` [Compound G-12], with 0.147 µM. Still for that read-out and setting: to `C[C@H](NS(=O)(=O)c1ccc(-c2ncc(-c3ccc4ccccc4c3)o2)cc1)C(=O)O` [Compound B-2] belongs 0.763 µM; to `CC(=O)Oc1ccc(C#Cc2ccc(S(=O)(=O)N[C@H](Cc3c[nH]c4ccccc34)C(=O)O)cc2)cc1` [Compound G-1], 0.046 µM; to `O=C(O)C(Cc1ccccc1)NS(=O)(=O)c1ccc(-c2ccc(F)cc2)cc1` (centres unmarked) [Compound E-26], 0.21 µM. On to `O=C(O)[C@H](Cc1ccccc1)NS(=O)(=O)c1ccc(C#Cc2ccc3ccccc3c2)s1` [Compound H-9], for which the IC50 in experiment [3] is greater than 10 µM. For the molecule `CSc1ccc(-c2ccc(S(=O)(=O)N[C@H](CO)C(=O)O)cc2)cc1` [Compound E-12], in experiment [3], the IC50 came to 0.0165 µM.

Take `Cc1ccc(C#Cc2ccc(S(=O)(=O)N[C@H](Cc3c[nH]c4c(O)cccc34)C(=O)O)s2)cc1` [Compound H-6]: the IC50 in experiment [3] stood at 0.0113 µM. For `CCc1ccc(-c2ccc(S(=O)(=O)NC(C(=O)O)C(C)C)cc2)cc1` (centres unmarked) [Compound E-18], the IC50 in experiment [3] was 0.0204 µM. On the same count and under the same terms, to `O=C(O)[C@@H](Cc1ccccc1)NS(=O)(=O)c1ccc(-c2ccc3ccccc3c2)s1` [Compound N-4] belongs 0.07 µM. `O=C(O)[C@H]1[C@@H]2CC[C@@H](C2)[C@@H]1NS(=O)(=O)c1ccc(-c2ccon2)s1` [Compound O-1]: the IC50 in experiment [3] is greater than 10 µM. On the same count and under the same terms, then `CSc1ccc(-c2ccc(S(=O)(=O)NC(C(=O)O)C(C)C)cc2)s1` (centres unmarked) [Compound K-1], with 0.0202 µM; and `O=C(O)[C@@H](Cc1ccccc1)NS(=O)(=O)c1ccc(-c2nc(-c3ccc(Cl)c(Cl)c3)no2)cc1` [Compound D-6], with 0.764 µM; and `CC(C)[C@@H](NS(=O)(=O)c1ccc(-c2ncc(-c3ccc4c(c3)OCO4)s2)cc1)C(=O)O` [Compound A-18], with 0.0052 µM.

`C=Cc1ccc(-c2ccc(S(=O)(=O)N[C@@H](C(=O)O)C(C)C)s2)cc1` [Compound F-26]: in experiment [3], the IC50 turned out to be 0.0101 µM. Still for that read-out and setting: to `CCCCc1ccc(-c2noc(-c3ccc(S(=O)(=O)N[C@@H](C(=O)O)C(C)C)cc3)n2)cc1` [Compound D-1] belongs 0.028 µM; to `CSCC[C@@H](NS(=O)(=O)c1ccc(-c2ccc(SC)cc2)s1)C(=O)O` [Compound F-3], 0.007 µM. On the same count and under the same terms, to `CCc1ccc(-c2nc(-c3ccc(S(=O)(=O)N[C@H](Cc4ccccc4)C(=O)O)cc3)no2)cc1` [Compound C-2] belongs 0.027 µM. Consider `CC(C)C(NS(=O)(=O)c1ccc(-c2ccccc2)cc1)C(=O)O` (centres unmarked) [Compound E-1], for which the IC50 in experiment [3] was determined as 0.4 µM. Same read-out and setting: to `O=C(O)[C@@H](Cc1ccccc1)NS(=O)(=O)c1ccc(-c2ncc(-c3ccccc3)s2)s1` [Compound N-7] belongs 0.114 µM; to `Cc1ccc(-c2ccc(-c3ccc(S(=O)(=O)NCC(=O)O)s3)s2)cc1` [Compound L-4], 0.281 µM.

As to `O=C(O)[C@H]1[C@@H]2CC[C@@H](C2)[C@@H]1NS(=O)(=O)c1ccc(-c2ccc(N3CCCC3)cc2)s1` [Compound O-2], the IC50 in experiment [3] was determined as 0.34 µM. Turning to `C[C@@H](NS(=O)(=O)c1ccc(-c2ncc(-c3ccc4ccccc4c3)s2)cc1)C(=O)O` [Compound A-12], in experiment [3], the IC50 was determined as 0.012 µM.
